For data set [1], the system named is Plasmodium falciparum, Strain D6. Nature of the data set: In vitro antiplasmodial activity, fluorescence-based SYBR Green assay, strain D6. Format: cell-based. Conditions: D6, 72 h, read-out: IC50 v D6 ± SD.
The nature of data set [2]: HepG2 cytotoxicity assay. Conditions: human. Format: cell-based.
The nature of data set [3]: Murine microsomal stability. Format: in vitro ADME.
The test system of data set [4] is Plasmodium yoelii. Description: In vivo parasite suppression at fixed dose, modified 4-day Peters test. More on the design: species or system Plasmodium yoelii (female CF1 mice). Conditions: for inhibition in vivo at 2.5 mg/kg: Plasmodium yoelii, in Mus musculus, po, 120 h, read-out: % Py Suppression; for % Py Suppression: 2.5 mg/kg/d oral, Days 1-4, parasitemia Day 5 vs vehicle control, n = 4.

The test system of data set [5] is Plasmodium yoelii. Description: In vivo efficacy. Also noted: species or system Plasmodium yoelii (female CF1 mice). The note with it: oral once daily for 4 days, parasitemia Day 5.
The subject of data set [6] is Plasmodium yoelii. Nature of the data set: Single dose cure. Format: in vivo, Plasmodium yoelii (female CF1 mice). Conditions: single oral dose Day 1, 0% parasitemia until Day 30.
[7] abbreviates: mouse, pooled liver microsomes, pH 7.4.

On to `CCN(CC)CCCC(C)Nc1ccnc2cc(Cl)ccc12` (centres unmarked) [Compound 1, chloroquine], for which the IC50 in data set [1] stood at 0.0096 ± 0.002 µM.

As for `Clc1ccc2c(Nc3ccc(N4CCOCC4)cc3)ccnc2c1` [Compound 7, 7-chloro-N-(4-morpholinophenyl)quinolin-4-amine], the CC50 at 24 h in data set [2] (HepG2 cells) was > 200 µM.

Regarding `FC(F)(F)Oc1ccc(-c2cnc3cc(Cl)ccc3c2Nc2ccc(N3CCOCC3)cc2)cc1` [Compound 8, 7-chloro-N-(4-morpholinophenyl)-3-(4-(trifluoromethoxy)phenyl)quinolin-4-amine], the CC50 at 24 h in data set [2] (HepG2 cells) was > 200 µM.

Regarding `Clc1ccc2c(Nc3ccc(C4COCCN4Cc4ccccc4)cc3)ccnc2c1` (centres unmarked) [Compound 12, N-(4-(4-benzylmorpholin-3-yl)phenyl)-7-chloroquinolin-4-amine], the CC50 at 24 h in data set [2] (HepG2 cells) was > 200 µM.

As to `CCN1CCOCC1c1ccc(Nc2ccnc3cc(Cl)ccc23)cc1` (centres unmarked) [Compound 13, 7-chloro-N-(4-(4-ethylmorpholin-3-yl)phenyl)quinolin-4-amine], the CC50 at 24 h in data set [2] (HepG2 cells) was > 200 µM.

In the case of `CCN1CCOCC1c1ccc(Nc2c(-c3ccc(OC(F)(F)F)cc3)cnc3cc(Cl)ccc23)cc1` (centres unmarked) [Compound 14, 7-chloro-N-(4-(4-ethylmorpholin-3-yl)phenyl)-3-(4-(trifluoromethoxy)phenyl)quinolin-4-amine], the CC50 at 24 h in data set [2] (HepG2 cells) was > 200 µM.

In the case of `Clc1ccc2c(Nc3ccc(C4CN(Cc5ccccc5)CCO4)cc3)ccnc2c1` (centres unmarked) [Compound 15, N-(4-(4-benzylmorpholin-2-yl)phenyl)-7-chloroquinolin-4-amine], in data set [2] (HepG2 cells), the CC50 at 24 h was found to be 38 µM.

For the compound `FC(F)(F)Oc1ccc(-c2cnc3cc(Cl)ccc3c2Nc2ccc(C3CN(Cc4ccccc4)CCO3)cc2)cc1` (centres unmarked) [Compound 16, N-(4-(4-benzylmorpholin-2-yl)phenyl)-7-chloro-3-(4-(trifluoromethoxy)phenyl)quinolin-4-amine], the CC50 at 24 h in data set [2] (HepG2 cells) was > 200 µM.

For the compound `Clc1ccc2c(Nc3ccc(N4CCN(Cc5ccccc5)CC4)cc3)ccnc2c1` [Compound 17, N-(4-(4-benzylpiperazin-1-yl)phenyl)-7-chloroquinolin-4-amine], the CLint scaled at 1 μM in data set [3] (setting [7]) was 392 mL/min/kg. Moreover, in data set [2] (HepG2 cells), the CC50 at 24 h was > 200 µM. In data set [4], the inhibition in vivo at 2.5 mg/kg is 0%.

With `CCN1CCN(c2ccc(Nc3ccnc4cc(Cl)ccc34)cc2)CC1` [Compound 20, 7-chloro-N-(4-(4-ethylpiperazin-1-yl)phenyl)quinolin-4-amine], in data set [5], the “ED50 v Py” value amounted to 1.5 mg/kg/day and the “ED90 v Py” value came to 8.4 mg/kg/day. In data set [3] (setting [7]), this compound showed a CLint scaled at 1 μM of 2930 mL/min/kg. Also, the CC50 at 24 h in data set [2] (HepG2 cells) is > 200 µM. Further, the inhibition in vivo at 2.5 mg/kg in data set [4] was determined as 60%.

For `CN1CCN(c2ccc(Nc3ccnc4cc(Cl)ccc34)cc2)CC1` [Compound 21, 7-chloro-N-(4-(4-methylpiperazin-1-yl)phenyl)quinolin-4-amine], in data set [3] (setting [7]), the CLint scaled at 1 μM was 3780 mL/min/kg.

For `CCN1CCN(c2ccc(Nc3ccnc4cc(Cl)c(Cl)cc34)cc2)CC1` [Compound 24, 6,7-dichloro-N-(4-(4-ethylpiperazin-1-yl)phenyl)quinolin-4-amine], in data set [2] (HepG2 cells), the CC50 at 24 h is > 200 µM.

Compound `CCN1CCN(c2ccc(Nc3ccnc4cc(Br)ccc34)cc2)CC1` [Compound 25, 7-bromo-N-(4-(4-ethylpiperazin-1-yl)phenyl)quinolin-4-amine] registered a CC50 at 24 h in data set [2] (HepG2 cells) of 48 µM.

Consider `CCN1CCN(c2ccc(Nc3ccnc4cc(C(F)(F)F)ccc34)cc2)CC1` [Compound 26, N-(4-(4-ethylpiperazin-1-yl)phenyl)-7-(trifluoromethyl)quinolin-4-amine], for which the CC50 at 24 h in data set [2] (HepG2 cells) is > 200 µM.

For the compound `CC(C)(C)N1CCN(c2ccc(Nc3ccnc4cc(Cl)ccc34)cc2)CC1` [Compound 31, N-(4-(4-(tert-butyl)piperazin-1-yl)phenyl)-7-chloroquinolin-4-amine], in data set [5], the “ED50 v Py” value came to 4.0 mg/kg/day and the “ED90 v Py” value is 7.6 mg/kg/day. For the same compound, in data set [3] (pooled murine liver microsomes, 1 μM, 0.5 mg/mL protein, 37 °C, 1 h), the “t1/2 (microsomal stability)” value was “∞”. For the same compound, the “compound metabolized over the course of the microsomal experiment” value in data set [3] (pooled murine liver microsomes, 1 h) is recorded as “no detectable amount of compound was metabolized”. Moreover, in data set [2] (HepG2 cells), the CC50 at 24 h was > 200 µM. For the same compound, in data set [4], the inhibition in vivo at 2.5 mg/kg worked out at 30%.

`FC(F)(F)c1ccc(N2CCN(c3ccc(Nc4ccnc5cc(Cl)ccc45)cc3)CC2)cc1` [Compound 32, 7-chloro-N-(4-(4-(4-(trifluoromethyl)phenyl)piperazin-1-yl)phenyl)quinolin-4-amine]: in data set [2] (HepG2 cells), the CC50 at 24 h was > 200 µM.

In the case of `Clc1ccc2c(Nc3ccc(N4CCN(C5CC5)CC4)cc3)ccnc2c1` [Compound 33, 7-chloro-N-(4-(4-cyclopropylpiperazin-1-yl)phenyl)quinolin-4-amine], the 50% cytotoxic concentration (CC50) at 24 h in data set [2] (HepG2 cells) is > 200 µM.

`Clc1ccc2c(Nc3ccc(N4CCCCC4)cc3)ccnc2c1` [Compound 34, 7-chloro-N-(4-(piperidin-1-yl)phenyl)quinolin-4-amine]: the CC50 at 24 h in data set [2] (HepG2 cells) is > 200 µM.

On to `CC(C)N1CCC(c2ccc(Nc3ccnc4cc(Cl)ccc34)cc2)CC1` [Compound 35, 7-chloro-N-(4-(1-isopropylpiperidin-4-yl)phenyl)quinolin-4-amine], for which, in data set [5], the “ED50 v Py” value is 1.1 mg/kg/day and the “ED90 v Py” value came to 4.1 mg/kg/day. The CLint scaled at 1 μM in data set [3] (setting [7]) was determined as 124 mL/min/kg. Also, the CC50 at 24 h in data set [2] (HepG2 cells) is > 200 µM. In data set [4], the inhibition in vivo at 2.5 mg/kg stood at 48%.

For `CC(C)(C)OC(=O)N1CCN(c2ccc(Nc3ccnc4cc(Cl)ccc34)cc2)CC1` [Compound 36, tert-butyl 4-(4-((7-chloroquinolin-4-yl)amino)phenyl)piperazine-1-carboxylate], the CC50 at 24 h in data set [2] (HepG2 cells) is > 200 µM.

Turning to `Clc1ccc2c(Nc3ccc(N4CCNCC4)cc3)ccnc2c1` [Compound 38, 7-chloro-N-(4-(piperazin-1-yl)phenyl)quinolin-4-amine], half-maximal cytotoxicity in data set [2] (HepG2 cells) (CC50 at 24 h) was put at 54 µM.

On to `Clc1ccc2c(Nc3ccc(C4CCNCC4)cc3)ccnc2c1` [Compound 39, 7-chloro-N-(4-(piperidin-4-yl)phenyl)quinolin-4-amine], for which the CC50 at 24 h in data set [2] (HepG2 cells) amounted to 58 µM.

On to `CCN1CCC(c2ccc(Nc3ccnc4cc(Cl)ccc34)cc2)CC1` [Compound 40, 7-chloro-N-(4-(1-ethylpiperidin-4-yl)phenyl)quinolin-4-amine], for which, in data set [5], the “ED50 v Py” value was found to be 1.8 mg/kg/day and the “ED90 v Py” value stood at 13 mg/kg/day. This compound also came in with a CLint scaled at 1 μM in data set [3] (setting [7]) of 497 mL/min/kg. The inhibition in vivo at 2.5 mg/kg in data set [4] was 13%.

Compound `CCCN1CCC(c2ccc(Nc3ccnc4cc(Cl)ccc34)cc2)CC1` [Compound 41, 7-chloro-N-(4-(1-propylpiperidin-4-yl)phenyl)quinolin-4-amine] returned a CLint scaled at 1 μM in data set [3] (setting [7]) of 78 mL/min/kg. In addition, the CC50 at 24 h in data set [2] (HepG2 cells) is > 200 µM. In data set [4], the “% Py Suppression” value is 39% and the inhibition in vivo at 2.5 mg/kg was determined as 39%.

Compound `CCCCN1CCC(c2ccc(Nc3ccnc4cc(Cl)ccc34)cc2)CC1` [Compound 42, N-(4-(1-butylpiperidin-4-yl)phenyl)-7-chloroquinolin-4-amine] gave a CLint scaled at 1 μM in data set [3] (setting [7]) of 130 mL/min/kg. For the same compound, the CC50 at 24 h in data set [2] (HepG2 cells) is > 200 µM. Also, the inhibition in vivo at 2.5 mg/kg in data set [4] was determined as 53%.

Regarding `CC(C)CN1CCC(c2ccc(Nc3ccnc4cc(Cl)ccc34)cc2)CC1` [Compound 43, 7-chloro-N-(4-(1-isobutylpiperidin-4-yl)phenyl)quinolin-4-amine], the CC50 at 24 h in data set [2] is > 200 µM. In addition, in data set [6], the “SDC (single dose cure)” value was 50 mg/kg. Moreover, in data set [4], the “% Py Suppression” value was 91% and the inhibition in vivo at 2.5 mg/kg was found to be 91%.

With `CCC(C)N1CCC(c2ccc(Nc3ccnc4cc(Cl)ccc34)cc2)CC1` (centres unmarked) [Compound 44, N-(4-(1-(sec-butyl)piperidin-4-yl)phenyl)-7-chloroquinolin-4-amine], the CLint scaled at 1 μM in data set [3] (setting [7]) was 98.3 mL/min/kg. The CC50 at 24 h in data set [2] (HepG2 cells) was > 200 µM. In addition, in data set [4], the inhibition in vivo at 2.5 mg/kg was 71%.

In data set [3] (setting [7]), `CC(C)CN1CCN(c2ccc(Nc3ccnc4cc(Cl)ccc34)cc2)CC1` [Compound 45, 7-chloro-N-(4-(4-isobutylpiperazin-1-yl)phenyl)quinolin-4-amine] returned a CLint scaled at 1 μM of 843 mL/min/kg and a half-life at 1 μM of 6.47 min. In data set [2] (HepG2 cells), the CC50 at 24 h is > 200 µM. Also, the “% Py Suppression” value in data set [4] is 30%.

The record behind these values is article PMC12744908 (Journal of medicinal chemistry, 2025).
